Test results published in PubChem BioAssay (NCI).
Values joined by “and” are separate entries in the source; they are usually repeats but may differ in a detail not shown here. Identical values can stand only once.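 In this assay, cells in 96-well plates receive the compound at five concentrations for 48 hours. Endpoints are linearly interpolated between the surrounding concentrations. GI50 is the concentration that inhibits growth by half. TGI is the concentration that stops growth completely.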

Legend:
Experiment in all cases: NCI-60 cell line screen, 48 h
OVCAR-4 ovarian = test system: OVCAR-4 ovarian
NCI-H522 lung = test system: NCI-H522 lung
BT-549 breast = test system: BT-549 breast
RXF 393 renal = test system: RXF 393 renal
HOP-92 NSCLC = test system: HOP-92 NSCLC
MDA-MB-435 = test system: MDA-MB-435
SK-MEL-5 melanoma = test system: SK-MEL-5 melanoma
SNB-75 CNS = test system: SNB-75 CNS
A498 renal = test system: A498 renal
MALME-3M melanoma = test system: MALME-3M melanoma

Structure (SMILES)	TGI (OVCAR-4 ovarian)	TGI (NCI-H522 lung)	TGI (BT-549 breast)	TGI (RXF 393 renal)	TGI (HOP-92 NSCLC)	TGI (MDA-MB-435)	TGI (SK-MEL-5 melanoma)	TGI (SNB-75 CNS)	TGI (A498 renal)	TGI (MALME-3M melanoma)	GI50 (RXF 393 renal)	GI50 (MDA-MB-435)	GI50 (SK-MEL-5 melanoma)	GI50 (A498 renal)	GI50 (MALME-3M melanoma)
O=C1CCC(CCc2nc3ccccc3[nH]2)(c2ccccc2)C(=O)N1 (centres undefined)	> 100 µM	> 100 µM	> 100 µM	> 100 µM	> 100 µM	> 100 µM	> 100 µM	> 100 µM	> 100 µM	> 100 µM	–	–	–	–	–
Brc1ccc(/C(N=N/C(=N\Sc2ccccc2)c2ccc(Br)cc2)=N/Sc2ccccc2)cc1	> 100 µM	> 100 µM	> 100 µM	> 100 µM	> 100 µM	> 100 µM	> 100 µM	> 100 µM	> 100 µM	> 100 µM	–	–	–	–	–
C[N+]1(CCCCN2c3ccccc3Sc3cc(N=[N+]=[N-])ccc32)CCN(C(=O)CCNC(=O)Cc2ccc(C(=O)c3ccccc3)cc2)CC1	48.8 µM	> 76.9 µM	> 71.4 µM	> 80 µM	40.5 µM	> 67.7 µM	> 62.6 µM	43.3 µM	56.3 µM	70.8 µM	–	–	–	–	–
CC(C)NC(=O)OCc1c(COC(=O)NC(C)C)n(C)c2c1ccc1cc(Cl)c(Cl)cc12	54.8 µM	13.1 µM	30.7 µM	25 µM	24.3 µM	19.5 µM	30.1 µM	28.4 µM	4.85 µM	22.7 µM	–	–	–	–	–
COc1ccc2c(c1)-c1nc(=S)n(CCN(C)C)c3ccc([N+](=O)[O-])c(c13)N2	13.3 µM	2.04 µM	24 µM	3.3 µM	27.7 µM	7.82 µM	7.61 µM	2.7 µM	24.5 µM	2.49 µM	–	–	–	–	–
Brc1ccc2[nH]cc(-c3csc(-c4c[nH]c5ccc(Br)cc45)n3)c2c1	7.59 µM	3.39 µM	18 µM	6.13 µM	4.64 µM	5.79 µM	3.14 µM	7.27 µM	6.03 µM	3.99 µM	–	–	–	–	–
N#Cc1ccnc(C(=O)N2CCCC2C(=O)O)c1 (centres undefined)	> 100 µM	> 100 µM	> 100 µM	> 100 µM	> 100 µM	> 100 µM	> 100 µM	> 100 µM	> 100 µM	> 100 µM	–	–	–	–	–
CN1C2CCC1C(CO)C(=O)C2 (centres undefined)	> 100 µM	34.2 µM	> 100 µM	> 100 µM	> 100 µM	> 100 µM	> 100 µM	> 100 µM	> 100 µM	66.5 µM	–	–	–	–	–
O=C(CCl)Nc1ccc(C(=O)N/N=C/c2ccc(Cl)cc2)cc1	4.48 µM and 4.43 µM	3.6 µM and 3.61 µM	3.53 µM and 4.11 µM	2.39 µM and 6.52 µM	4.53 µM	3.27 µM and 21.7 µM	4.45 µM and 13.6 µM	30.5 µM	4.85 µM and 26.7 µM	3.63 µM and 14.2 µM	2.09 µM	9.67 µM	2.14 µM	13 µM	3.79 µM
O=c1[nH]nc(-c2ccc([N+](=O)[O-])cc2)[nH]1	> 100 µM	> 100 µM	> 100 µM	> 100 µM	> 100 µM	> 100 µM	–	> 100 µM	> 100 µM	> 100 µM	–	–	–	–	–
CC(C)(C)[Si](C)(C)OC1CCOC1(O)c1ccccn1 (centres undefined)	> 100 µM	> 100 µM	> 100 µM	> 100 µM	> 100 µM	> 100 µM	> 100 µM	> 100 µM	> 100 µM	> 100 µM	–	–	–	–	–
CC(=O)Nc1ccc2c(c1)nc1c3ccccc3ccn21	> 100 µM	> 100 µM	> 100 µM	> 100 µM	> 100 µM	> 100 µM	> 100 µM	> 100 µM	> 100 µM	> 100 µM	–	–	–	–	–
O=C1c2c(Br)sc(Br)c2[C@H]2OC(=S)N[C@@H]12	13.3 µM	3.4 µM	23.8 µM	8.8 µM	27.3 µM	8.65 µM	23.8 µM	31 µM	32.5 µM	10.4 µM	–	–	–	–	–
CCOP(=O)(CC1OC(CO)C(O)C1O)OCC (centres undefined)	> 100 µM	> 100 µM	> 100 µM	> 100 µM	> 100 µM	> 100 µM	> 100 µM	> 100 µM	> 100 µM	> 100 µM	–	–	–	–	–
C/C(=C\CO)CC[C@@H]1[C@@]2(C)CCCC(C)(C)[C@@H]2CC[C@@]1(C)O	34.2 µM	31.4 µM	32.6 µM	35 µM	32.4 µM	34.6 µM	31.8 µM	34.7 µM	30.7 µM	36.3 µM	–	–	–	–	–
COc1ccc(C(=C2C(=O)OC(=O)C2=C(C)C)c2ccc(OC)cc2)cc1	92.5 µM	55.7 µM	> 100 µM	> 100 µM	> 100 µM	> 100 µM	> 100 µM	> 100 µM	> 100 µM	> 100 µM	–	–	–	–	–
CN(C)CN1C(=O)/C(=N\n2c(-c3ccncc3)n[nH]c2=S)c2ccccc21	45.2 µM	45.1 µM	> 100 µM	32.4 µM	> 100 µM	30.2 µM	> 100 µM	> 100 µM	> 100 µM	> 100 µM	–	–	–	–	–
O=C1c2cccnc2C(=O)c2c1nc1ccccc1c2-c1ccc2c3c(nc4ccccc42)C(=O)c2cccnc2-c13	14 µM	4.58 µM	12.7 µM	9.68 µM	30.5 µM	5.58 µM	1.77 µM	8.28 µM	6.05 µM	4.54 µM	–	–	–	–	–
CCCCCc1cc(CCCC)sc1-c1ccco1	> 100 µM	> 100 µM	> 100 µM	> 100 µM	> 100 µM	> 100 µM	> 100 µM	> 100 µM	> 100 µM	> 100 µM	–	–	–	–	–
Cn1c2ccccc2c2c3c(=O)[nH][nH]c(=O)c3c3c4ccccc4n(C)c3c21	> 100 µM	> 100 µM	> 100 µM	> 100 µM	> 100 µM	> 100 µM	> 100 µM	> 100 µM	> 100 µM	> 100 µM	–	–	–	–	–
O=C1C=CC(=O)c2c(O)c(N3CCN(c4ncccn4)CC3)c(Cl)c(O)c21	3.69 µM	4.42 µM	3.86 µM	3.51 µM	4.72 µM	3.29 µM	3.79 µM	21.8 µM	6.49 µM	3.63 µM	–	–	–	–	–
COC(=O)[C@@H]1[C@H]2CC[C@]3(C)[C@@H](OC(C)=O)CC[C@H]3[C@@H]2CC[C@H]1C1(C)SCCS1	75.2 µM	56.7 µM	46.2 µM	40.6 µM	47.9 µM	35.3 µM	21.4 µM	> 100 µM	> 100 µM	38.9 µM	–	–	–	–	–
COc1ccc2c(c1)CCC(CN1CCN(CCOC(c3ccccc3)c3ccccc3)CC1)C2O (centres undefined)	33.2 µM	31 µM	27.1 µM	29.3 µM	28.5 µM	32 µM	21.9 µM	34.5 µM	23.1 µM	32.4 µM	–	–	–	–	–
O=C1CCCC2=C1CC1=C(CCCC1=O)N2c1ccc(-c2ccccc2)cc1	> 100 µM	> 100 µM	> 100 µM	> 58.9 µM	> 100 µM	> 100 µM	> 100 µM	> 67.5 µM	> 100 µM	> 100 µM	–	–	–	–	–
Cc1nc2ccccc2n1Cc1ccc(NC(=S)Nc2ccccc2)cc1	> 100 µM	> 100 µM	> 100 µM	> 100 µM	> 100 µM	> 100 µM	56.6 µM	> 100 µM	> 100 µM	> 100 µM	–	–	–	–	–
CC(C)(C)C#CI1OC(=O)c2ccccc21	8.08 µM	3.82 µM	11.7 µM	30.4 µM	5.78 µM	18.4 µM	15.5 µM	16 µM	24 µM	9.24 µM	–	–	–	–	–
